Test results: US20230414567A1, “METHODS OF TREATING CONDITIONS RELATED TO THE S1P1 RECEPTOR” (Arena Pharmaceuticals, Inc., priority 2020, published 2023)

Legend:
[1] = system: patients with moderate to severe atopic dermatitis; assay: Phase 2 randomized, double-blind, placebo-controlled study: efficacy (EASI, vIGA, pruritus NRS, patient-reported outcomes); type: in vivo, human; conditions: for reduction in EASI from baseline to week 12: 12 weeks (n=47); for delta versus placebo in vIGA 0 or 1 response at week 12: p<0.05
Description: A Phase 2, multicenter, randomized, double-blind, placebo-controlled study was conducted to assess the safety and efficacy of etrasimod in patients with moderate to severe atopic dermatitis. The primary endpoint measured was percent change in Eczema Area and Severity Index (EAST) from baseline to week 12, followed by a 4-week follow-up observation period. Secondary endpoints include the proportion of participants achieving EASI-75, proportion of participants with a validated Investigator Global Assessment (vIGA) 0 to 1, and percent change in peak pruritis. The trial enrolled approximately 140 patients and was conducted in study sites across the United States, Canada and Australia. An open-label extension of the trial is ongoing. The study included multiple periods: (i) up to a 4-week screening period (to determine subject eligibility); (ii) a 12-week double-blind treatment period with a 4-week safety follow-up period; and (iii) a 52-week open-label extension period followed by a 4-week safety follow-up period. Subjects with chronic AD for at least one year (as defined by Hanifin and Rajka criteria (Hanifin 1980)) despite optimized skin care (e.g., use of emollients, avoidance of irritants) whose disease is not adequately controlled with topical therapies, or for whom those therapies are not advisable, were equally randomized (1:1:1 ratio) to receive etrasimod (1 or 2 mg) or placebo. Etrasimod 1 or 2 mg tablets or matching placebo tablets were taken orally once daily during the double-blind treatment period. Etrasimod 2 mg tablets are taken orally once daily during the open-label extension period. There is no reference therapy (no placebo) during the open-label extension period. Inclusion Criteria: Subjects must meet ALL of the following inclusion criteria to be eligible for enrollment into the study. • 1. Men or women between ≥18 and ≤70 years of age at the time of informed consent. • 2. Chronic AD, defined by Hanifin and Rajka criteria (Hanifin 1980), that has been present for at least one year prior to the screening visit. • 3. Eczema Area and Severity Index (EAST)≥12 at the screening visit and ≥16 at the baseline visit. • 4. vIGA score≥3 (on the 0 to 4 vIGA scale, in which 3=moderate and 4=severe) involvement at the screening and baseline visits. • 5. Body surface area (BSA)≥10% of AD involvement at the screening and baseline visits. • 6. Recent history (within 6 months prior to the screening visit) of inadequate response to treatment with topical medications, or when topical treatments are otherwise medically inadvisable (e.g., because of important side effects or safety risks), which can be documented by medical records or by the history provided to the investigator by the subject despite optimized skin care (.e., avoidance of irritants, use of emollients). • 7. Willing to apply a dose of topical emollient/moisturizer at least once daily for ≥1 week prior to the baseline visit and willing to continue daily application over the course of the study without change (i.e., type, frequency, application). • 8. Willing and able to comply with all clinic visits and study-related procedures and understand and complete study-related questionnaires. • 9. Provide signed informed consent prior to conducting any procedures. Efficacy was assessed by changes in AD severity using EASI, vIGA, SCORing Atopic Dermatitis (SCORAD), and BSA. Symptoms of itch were assessed using the pruritus numeric rating scale (NRS). Patient-reported outcomes will also be assessed using the Dermatology Life Quality Index (DLQI), Patient Oriented Eczema Measure (POEM), and Patient Global Assessment (PGA).

[2] = system: patients with moderate to severe atopic dermatitis; assay: Phase 2 atopic dermatitis study: adverse events and tolerability; type: in vivo, human
heart rate = assay: Phase 2 atopic dermatitis study: heart rate effects after first dose; type: in vivo, human; conditions: for placebo corrected maximal mean heart rate decrease from baseline: 2 hours after first dose
Excerpt: (§1) The study included multiple periods: (i) up to a 4-week screening period (to determine subject eligibility); (ii) a 12-week double-blind treatment period with a 4-week safety follow-up period; and (iii) a 52-week open-label extension period followed by a 4-week safety follow-up period. Subjects with chronic AD for at least one year (as defined by Hanifin and Rajka criteria (Hanifin 1980)) despite optimized skin care (e.g., use of emollients, avoidance of irritants) whose disease is not adequately controlled with topical therapies, or for whom those therapies are not advisable, were equally randomized (1:1:1 ratio) to receive etrasimod (1 or 2 mg) or placebo. Etrasimod 1 or 2 mg tablets or matching placebo tablets were taken orally once daily during the double-blind treatment period. Etrasimod 2 mg tablets are taken orally once daily during the open-label extension period. There is no reference therapy (no placebo) during the open-label extension period.
There was a decrease of 1.5 bpm in the 1 mg group and a decrease of 6.7 bpm in the 2 mg group. […] After the first dose, the heart rate differences across the 3 groups came together by week 1 and were similar from weeks 2-12. One participant in the 2 mg etrasimod group had transient 2nd degree AVB Type 1 which was self-limited, and asymptomatic. The participant went on to further dosing without any cardiac changes or symptoms.

lymphocyte count = assay: Phase 2 atopic dermatitis study: absolute/peripheral lymphocyte count; type: in vivo, human
Excerpt: as §1
During the double-blind treatment period, etrasimod plasma concentrations and a complete blood count (CBC) including lymphocyte count were assessed on day 1 and before dosing at subsequent study visits. Study visits occurred at baseline, week 1, week 2, week 4, week 6, week 8, week 12, at the end of treatment, and at the week 16 follow-up visit. The absolute lymphocyte count (ALC) was included as part of the assessment.

UC patients = conditions: 2 mg QD for 12 weeks; cited from earlier work
healthy adult subjects = conditions: single doses up to 5 mg, repeated doses up to 4 mg QD; cited from earlier work

## O=C(O)C[C@H]1CCc2c1[nH]c1ccc(OCc3ccc(C4CCCC4)c(C(F)(F)F)c3)cc21 [etrasimod, (R)-2-(7-(4-cyclopentyl-3-(trifluoromethyl)benzyloxy)-1,2,3,4-tetrahydrocyclopenta[b]indol-3-yl)acetic acid]
[1]; 1 mg once daily, week 12
  patients achieving EASI-75: 27.7%
  patients achieving vIGA of 0 or 1 and a reduction from baseline of >=2 points at week 12: 14.9%
[1]; 1 mg orally once daily
  reduction in EASI from baseline to week 12: 58.7%
[1]; 1 mg, week 12, p=0.61 vs placebo
  proportion of patients with decrease in pruritus >=4 points at week 12: 32.5%
[1]; 2 mg dose group, week 4
  improvement in EASI from baseline to week 4: statistically significant improvement
  improvement in pruritis at week 4: statistically significant improvement
  proportion of patients who achieved EASI-75 at week 4: statistically significant improvement
[1]; 2 mg group vs placebo
  delta versus placebo in vIGA 0 or 1 response at week 12: 16.8%
[1]; 2 mg group without interruptions, weeks 4 to 12
  percent change in EASI over time versus placebo: significant at 4 weeks
[1]; 2 mg group without study interruptions
  patients achieving EASI-75 at week 12: 42.1%
[1]; 2 mg group without study interruptions (38 participants)
  patients achieving vIGA of 0 or 1 and reduction from baseline >=2 points at week 12: 36.8%
[1]; 2 mg group without study interruptions vs placebo
  delta versus placebo in vIGA 0 or 1 response at week 12: 23.8%
[1]; 2 mg once daily, week 12
  patients achieving EASI-75: 38.3%
  patients achieving vIGA of 0 or 1 and a reduction from baseline of >=2 points at week 12: 29.8%
[1]; 2 mg orally once daily
  reduction in EASI from baseline to week 12: 57.2%
[1]; 2 mg patients with dose interruption, after restart
  treatment response after restart of treatment: recaptured
[1]; 2 mg patients with dose interruption, to week 12
  EASI change from baseline in patients who ceased then reinitiated treatment: improved rapidly after resumption
[1]; 2 mg, over 12 weeks
  patient-reported and clinician-assessed outcomes versus placebo: improved patient-reported outcomes and clinician-assessed outcomes versus placebo
[1]; 2 mg, week 12
  proportions of patients achieving vIGA score of 0 or 1, DLQI and POEM versus placebo: significantly greater proportions
[1]; 2 mg, week 12, p=0.15 vs placebo
  proportion of patients with decrease in pruritus >=4 points at week 12: 42.1%
[1]; etrasimod group without interruptions
  pruritis NRC changes over time versus placebo: statistically significant from weeks 2-8
[2]; 1 mg and 2 mg, 12-week double-blind period
  tolerability: well tolerated
[2]; 2 mg treatment group
  cases of dyspnea: one case
[2]; double-blind treatment period
  adverse events related to heart rate: no adverse events related to heart rate
  cases of macular edema: no cases
  conjunctivitis, acne, venous thromboembolic events, opportunistic or serious infections: no reports
Heart rate; 1 mg and 2 mg groups, after first dose
  blood pressure changes or symptoms associated with heart rate changes: not associated with any blood pressure changes or symptoms
Heart rate; 1 mg group
  placebo corrected maximal mean heart rate decrease from baseline: 1.5 bpm
Heart rate; 2 mg group
  placebo corrected maximal mean heart rate decrease from baseline: 6.7 bpm
Heart rate; 2 mg group, self-limited, asymptomatic
  participants with transient 2nd degree AVB Type 1: One
Lymphocyte count; 2 mg group, between weeks 4 and 8
  patients with ALC measurement of Grade 3 (between 0.2x10e9 and 0.5x10e9 cells/L): nine
Lymphocyte count; 2 mg group, week 2
  maximal reduction in the peripheral lymphocyte count: 43.6%
Lymphocyte count; 2 mg patients with dose interruption, between weeks 4 and 8
  lymphocyte count after treatment withdrawal: rapid rebound in lymphocyte count
UC patients
  endoscopic and symptomatic improvements versus placebo: clinically meaningful and statistically significant endoscopic and symptomatic improvements
Healthy adult subjects
  safety and tolerability in clinical trials: safe and well-tolerated
